This data set in a line: MTT cell viability assay, compounds at 5, 1 and 0.2 μM, 48 hours. The format is cell-based. The note with it: human, A549 tumor cells. On the procedure: MTT assay is used to determine cell proliferation, percent of viable cells, and cytotoxicity. MTT (3-[4,5-dimethylthiazol-2-yl]2,5-diphenyltetrazolium bromide) is a yellow dye, which can be absorbed by the living cells and be reduced to purplish blue formazan crystals by succinate tetrazolium reductase in mitochondria. Formazan formation can therefore be used to assess and determine the survival rate of cells.
Tumor cells (A549) were plated at 2500 cells/well of a 96-well plate in complete growth medium (DMEM+10% FBS, antibiotic/antimycotic, fungizone, L-glutamine, sodium pyruvate, and non-essential amino acids). The cells were allowed to grow overnight. After cell proliferation, the cells were washed and re-suspended in fresh culture medium and placed in 96 well plates.
To each of the 96 well plates containing A549 and a control, 5, 1, and 0.2 μM of the exemplary compounds 1-200 were add. The 96 well plates were incubated for 48 hours. Cell viability was measured by adding MTT (Sigma) at 5 mg/ml for 4 h to the cells and then removing the medium and resuspending each well in 50 μl DMSO to solubilize the crystals. The 96-well plates were read on a plate-scanning spectrophotometer (BioTek) at an absorbance of […]. The survival rate of cells was calculated based on the measurement of absorption at the 570 nm wavelength by enzyme immunoassay analyzer.
A general note: Tetrazolium dyes change colour on reduction, which living cells bring about.

Usually viability stands for the share of living cells, or the viability signal relative to a control.

As for `FC(F)(F)c1cccc(Nc2nnc(-c3cccc(Oc4ncnc5[nH]ccc45)c3)o2)c1` [Compound 60], the viability at 48 h, 0.2 µM is over 70%; the viability at 48 h, 1 µM was over 70%; the viability at 48 h, 5 µM was over 70%.

The molecule `Nc1cc(Oc2cccc(-c3nnc(Nc4cccc(C(F)(F)F)c4)[nH]3)c2)ncn1` [Compound 16] came in with a viability at 48 h, 0.2 µM of over 70%; a viability at 48 h, 1 µM of over 70%; a viability at 48 h, 5 µM of over 70%.

As to `CCc1cccc(Nc2nnc(-c3ccc(Oc4cc(N)nc(SC)n4)cc3)[nH]2)c1` [Compound 122], the viability at 48 h, 0.2 µM was over 70%; the viability at 48 h, 1 µM is over 70%; the viability at 48 h, 5 µM is under 50%.

For the molecule `O=[N+]([O-])c1cc(F)cc(Oc2ccc(-c3nnc(Nc4cccc(C(F)(F)F)c4)[nH]3)cc2)c1` [Compound 147], the viability at 48 h, 0.2 µM is over 70%; the viability at 48 h, 1 µM was over 70%; the viability at 48 h, 5 µM lay in the range of 50 to 70%.

In turn, `CSc1nc(N)cc(Oc2ccc(-c3nnc(Nc4cccc(CC#N)c4)[nH]3)cc2)n1` [Compound 130] registered a viability at 48 h, 0.2 µM of over 70%; a viability at 48 h, 1 µM of over 70%; a viability at 48 h, 5 µM of under 50%.

In turn, `FC(F)(F)c1cccc(Nc2nnc(-c3ccc(Oc4ccnc(Cl)c4)cc3)[nH]2)c1` [Compound 6] showed a viability at 48 h, 0.2 µM of over 70%; a viability at 48 h, 1 µM of 50 to 70%; a viability at 48 h, 5 µM of under 50%.

For `Nc1cc(Oc2ccc(-c3nnc(Nc4cccc(C(F)(F)F)c4)[nH]3)cc2)ccn1` [Compound 4], the viability at 48 h, 0.2 µM was over 70%; the viability at 48 h, 1 µM was over 70%; the viability at 48 h, 5 µM was in the range of 50 to 70%.

The molecule `Nc1cc(Oc2cccc(-c3nnc(Nc4cccc(C(F)(F)F)c4)o3)c2)ccn1` [Compound 38] displayed a viability at 48 h, 0.2 µM of over 70%; a viability at 48 h, 1 µM of over 70%; a viability at 48 h, 5 µM of over 70%.

On to `CSc1nc(N)cc(Oc2ccc(-c3nnc(Nc4cc(C)ccc4F)[nH]3)cc2)n1` [Compound 121], for which the viability at 48 h, 0.2 µM was over 70%; the viability at 48 h, 1 µM lay in the range of 50 to 70%; the viability at 48 h, 5 µM was under 50%.

In the case of `CSc1nc(N)cc(Oc2ccc(-c3nnc(Nc4cccc(OC(C)C)c4)[nH]3)cc2)n1` [Compound 134], the viability at 48 h, 0.2 µM was over 70%; the viability at 48 h, 1 µM was over 70%; the viability at 48 h, 5 µM is under 50%.

In turn, `CSc1nc(N)cc(Oc2cccc(-c3nnc(Nc4cccc(C(F)(F)F)c4)s3)c2)n1` [Compound 48] gave a viability at 48 h, 0.2 µM of over 70%; a viability at 48 h, 1 µM of over 70%; a viability at 48 h, 5 µM of over 70%.

`CCOc1cc(Oc2ccc(-c3nnc(Nc4cccc(C(F)(F)F)c4)[nH]3)cc2)nc(N)n1` [Compound 52] came in with a viability at 48 h, 0.2 µM of over 70%; a viability at 48 h, 1 µM of over 70%; a viability at 48 h, 5 µM of over 70%.

With `CSc1nc(N)cc(Oc2ccc(-c3nnc(Nc4ccc(C)c(C)c4)[nH]3)cc2)n1` [Compound 125], the viability at 48 h, 0.2 µM is over 70%; the viability at 48 h, 1 µM was over 70%; the viability at 48 h, 5 µM is under 50%.

For the molecule `COc1ccc2c(Oc3ccc(Nc4nnc(-c5cccc(C(F)(F)F)c5)[nH]4)cc3)ccnc2c1` [Compound 175], the viability at 48 h, 0.2 µM is over 70%; the viability at 48 h, 1 µM was over 70%; the viability at 48 h, 5 µM was over 70%.

The molecule `COc1nc(Oc2ccc(-c3nnc(Nc4cccc(C(F)(F)F)c4)[nH]3)cc2)c2cc[nH]c2n1` [Compound 75] had a viability at 48 h, 0.2 µM of over 70%; a viability at 48 h, 1 µM of over 70%; a viability at 48 h, 5 µM of over 70%.

Turning to `Nc1cc(Oc2ccc(-c3nnc(Nc4cccc(C(F)(F)F)c4)[nH]3)cc2)nc(Sc2ccccn2)n1` [Compound 152], the viability at 48 h, 0.2 µM was over 70%; the viability at 48 h, 1 µM was over 70%; the viability at 48 h, 5 µM is over 70%.

The molecule `COCCOc1nc(N)cc(Oc2cccc(-c3nnc(Nc4cccc(C(F)(F)F)c4)[nH]3)c2)n1` [Compound 96] showed a viability at 48 h, 0.2 µM of over 70%; a viability at 48 h, 1 µM of over 70%; a viability at 48 h, 5 µM of over 70%.

Consider `CSc1nc(N)cc(Oc2ccc(-c3nnc(Nc4cccc(C(F)(F)F)c4)[nH]3)c(F)c2)n1` [Compound 107], for which the viability at 48 h, 0.2 µM was over 70%; the viability at 48 h, 1 µM was over 70%; the viability at 48 h, 5 µM lay in the range of 50 to 70%.

As to `FC(F)(F)c1cccc(Nc2nnc(-c3cccc(Oc4cc(C(F)(F)F)nc5ccccc45)c3)[nH]2)c1` [Compound 169], the viability at 48 h, 0.2 µM was over 70%; the viability at 48 h, 1 µM was over 70%; the viability at 48 h, 5 µM is over 70%.

As to `CSc1nc(N)cc(Oc2ccc(-c3nnc(Nc4cccc(C(F)(F)F)c4)[nH]3)cc2Cl)n1` [Compound 104], the viability at 48 h, 0.2 µM was over 70%; the viability at 48 h, 1 µM was over 70%; the viability at 48 h, 5 µM was under 50%.

`FC(F)(F)c1cccc(Nc2nnc(-c3cccc(Oc4ccnc5cc(Cl)ccc45)c3)[nH]2)c1` [Compound 167] had a viability at 48 h, 0.2 µM of over 70%; a viability at 48 h, 1 µM of over 70%; a viability at 48 h, 5 µM of over 70%.

`FC(F)(F)c1cccc(Nc2nnc(-c3cccc(Oc4ccnc5[nH]ccc45)c3)[nH]2)c1` [Compound 85] showed a viability at 48 h, 0.2 µM of over 70%; a viability at 48 h, 1 µM of over 70%; a viability at 48 h, 5 µM of 50 to 70%.

The molecule `CC(C)(C)Sc1cc(Oc2cccc(-c3nnc(Nc4cccc(C(F)(F)F)c4)[nH]3)c2)nc(N)n1` [Compound 151] returned a viability at 48 h, 0.2 µM of over 70%; a viability at 48 h, 1 µM of over 70%; a viability at 48 h, 5 µM of over 70%.

The molecule `Nc1nccc(Oc2ccc(-c3nnc(Nc4cccc(C(F)(F)F)c4)o3)cc2)n1` [Compound 27] registered a viability at 48 h, 0.2 µM of over 70%; a viability at 48 h, 1 µM of over 70%; a viability at 48 h, 5 µM of 50 to 70%.

Turning to `Oc1ccc(Nc2nnc(-c3cccc(C(F)(F)F)c3)[nH]2)cc1` [Compound 181], the viability at 48 h, 0.2 µM is over 70%; the viability at 48 h, 1 µM was over 70%; the viability at 48 h, 5 µM is over 70%.

In turn, `FC(F)(F)c1cccc(Nc2nnc(-c3ccc(Oc4ccnc5[nH]ccc45)cc3)[nH]2)c1` [Compound 68] displayed a viability at 48 h, 0.2 µM of over 70%; a viability at 48 h, 1 µM of 50 to 70%; a viability at 48 h, 5 µM of under 50%.

Take `CSc1nc(N)cc(Oc2ccc(-c3nnc(Nc4cc(C(C)(C)C)nn4-c4cccc(C)c4)[nH]3)cc2)n1` [Compound 139]: the viability at 48 h, 0.2 µM is over 70%; the viability at 48 h, 1 µM was over 70%; the viability at 48 h, 5 µM was over 70%.

The molecule `CSc1nc(N)cc(Oc2ccc(-c3nnc(Nc4cccc(C(F)(F)F)c4)[nH]3)c(Cl)c2)n1` [Compound 112] returned a viability at 48 h, 0.2 µM of over 70%; a viability at 48 h, 1 µM of over 70%; a viability at 48 h, 5 µM of over 70%.

Consider `CSc1nc(N)cc(Sc2ccc(-c3nnc(Nc4cccc(C(F)(F)F)c4)[nH]3)cc2)n1` [Compound 119], for which the viability at 48 h, 0.2 µM is over 70%; the viability at 48 h, 1 µM is under 50%; the viability at 48 h, 5 µM was under 50%.

With `CSc1nc(N)cc(Oc2ccc(-c3nnc(Nc4ccc5c(c4)CCC5)[nH]3)cc2)n1` [Compound 124], the viability at 48 h, 0.2 µM was over 70%; the viability at 48 h, 1 µM is over 70%; the viability at 48 h, 5 µM is under 50%.

`Cc1nc(C(F)(F)F)nc(Oc2ccc(-c3nnc(Nc4cccc(C(F)(F)F)c4)[nH]3)cc2)c1C` [Compound 157] yielded a viability at 48 h, 0.2 µM of over 70%; a viability at 48 h, 1 µM of over 70%; a viability at 48 h, 5 µM of over 70%.

The molecule `COCCCNc1cc(Oc2ccc(-c3nnc(Nc4cccc(C(F)(F)F)c4)[nH]3)cc2)nc(SC)n1` [Compound 145] registered a viability at 48 h, 0.2 µM of over 70%; a viability at 48 h, 1 µM of over 70%; a viability at 48 h, 5 µM of under 50%.

`Cc1cc(Oc2ccc(-c3nnc(Nc4cccc(C(F)(F)F)c4)[nH]3)cc2)c2ccccc2n1` [Compound 158] came in with a viability at 48 h, 0.2 µM of over 70%; a viability at 48 h, 1 µM of over 70%; a viability at 48 h, 5 µM of 50 to 70%.

In the case of `CSc1nc(N)cc(Oc2ccc(-c3nnc(Nc4cccc(C)c4C)[nH]3)cc2)n1` [Compound 126], the viability at 48 h, 0.2 µM is under 50%; the viability at 48 h, 1 µM is under 50%; the viability at 48 h, 5 µM is under 50%.

For `COc1cc2ncnc(Oc3ccc(-c4nnc(Nc5cccc(C(F)(F)F)c5)[nH]4)cc3)c2cc1OC` [Compound 160], the viability at 48 h, 0.2 µM is over 70%; the viability at 48 h, 1 µM is over 70%; the viability at 48 h, 5 µM was 50 to 70%.

As for `CSc1nc(N)cc(Oc2ccc(-c3nnc(Nc4cccc(C(F)(F)F)c4F)[nH]3)cc2)n1` [Compound 137], the viability at 48 h, 0.2 µM is over 70%; the viability at 48 h, 1 µM was under 50%; the viability at 48 h, 5 µM is under 50%.

For the molecule `FC(F)(F)c1cccc(Nc2nnc(-c3ccc(Oc4cncc5ccccc45)cc3)[nH]2)c1` [Compound 146], the viability at 48 h, 0.2 µM was over 70%; the viability at 48 h, 1 µM was over 70%; the viability at 48 h, 5 µM was under 50%.

The values above are taken from patent publication US9212151B2, “Heterocyclic compounds useful for kinase inhibition” (Amitech Therapeutic Solutions, Inc., priority 2010, dated 2015).
